From patent US20250381157A1, “ANTIMICROBIAL COMPOUNDS” (priority 2022, published 2025)

Columns and labels:
[1] = system: Caco-2 cells; experiment: Caco-2 cell study (permeability, efflux); assay type: in vitro ADME
Description: Caco-2 cells are used as a model of the intestinal epithelial barrier.

[2] = Plasma stability Rat; assay type: in vitro ADME
[3] = Stability SGD, SIF w. Enzymes; assay type: in vitro ADME
[4] = target: T1, recombinant human HDAC3 (Homo sapiens, UniProt O15379); experiment: HDAC3 in-vitro enzymatic assay; assay type: biochemical
T1 construct: purchased BPS 50003
Experimental: (§1) All of the compounds were dissolved in DMSO. A series of dilutions of the compounds were prepared with 10% DMSO in HDAC assay buffer and 5 μl of the dilution was added to a 50 μl reaction so that the final concentration of DMSO was 1% in all of reactions. The compounds were pre-incubated in duplicate at RT for 30 minutes in a mixture containing HDAC assay buffer, 5 μg BSA, HDAC enzyme and a test compound. After 30 minutes, the enzymatic reactions were initiated by the addition of HDAC substrate to a final concentration of 20 μM or 2 μM. The enzymatic reaction proceeded for 30 minutes at 37° C. After enzymatic reactions, 50 μl of 2×HDAC Developer was added to each well for the HDAC enzymes and the plate was incubated at room temperature for an additional 15 minutes. Fluorescence intensity was measured at an excitation of 360 nm and an emission of 460 nm using a Tecan Infinite M1000 microplate reader.
(§2) HDAC activity assays were performed in duplicates at each concentration. The fluorescent intensity data were analyzed using the computer software, Graphpad Prism. […] The percent activity in the presence of each compound was calculated according to the following equation: % activity=(F−Fb)/(Ft−Fb), where F=the fluorescent intensity in the presence of the compound. […] The IC50 value was determined by the concentration causing a half-maximal percent activity.

[5] = target: T2, recombinant human HDAC7 (Homo sapiens, UniProt Q8WUI4); experiment: HDAC7 in-vitro enzymatic assay; assay type: biochemical
T2 construct: purchased BPS 50007
T2 sequence (Q8WUI4 1-952): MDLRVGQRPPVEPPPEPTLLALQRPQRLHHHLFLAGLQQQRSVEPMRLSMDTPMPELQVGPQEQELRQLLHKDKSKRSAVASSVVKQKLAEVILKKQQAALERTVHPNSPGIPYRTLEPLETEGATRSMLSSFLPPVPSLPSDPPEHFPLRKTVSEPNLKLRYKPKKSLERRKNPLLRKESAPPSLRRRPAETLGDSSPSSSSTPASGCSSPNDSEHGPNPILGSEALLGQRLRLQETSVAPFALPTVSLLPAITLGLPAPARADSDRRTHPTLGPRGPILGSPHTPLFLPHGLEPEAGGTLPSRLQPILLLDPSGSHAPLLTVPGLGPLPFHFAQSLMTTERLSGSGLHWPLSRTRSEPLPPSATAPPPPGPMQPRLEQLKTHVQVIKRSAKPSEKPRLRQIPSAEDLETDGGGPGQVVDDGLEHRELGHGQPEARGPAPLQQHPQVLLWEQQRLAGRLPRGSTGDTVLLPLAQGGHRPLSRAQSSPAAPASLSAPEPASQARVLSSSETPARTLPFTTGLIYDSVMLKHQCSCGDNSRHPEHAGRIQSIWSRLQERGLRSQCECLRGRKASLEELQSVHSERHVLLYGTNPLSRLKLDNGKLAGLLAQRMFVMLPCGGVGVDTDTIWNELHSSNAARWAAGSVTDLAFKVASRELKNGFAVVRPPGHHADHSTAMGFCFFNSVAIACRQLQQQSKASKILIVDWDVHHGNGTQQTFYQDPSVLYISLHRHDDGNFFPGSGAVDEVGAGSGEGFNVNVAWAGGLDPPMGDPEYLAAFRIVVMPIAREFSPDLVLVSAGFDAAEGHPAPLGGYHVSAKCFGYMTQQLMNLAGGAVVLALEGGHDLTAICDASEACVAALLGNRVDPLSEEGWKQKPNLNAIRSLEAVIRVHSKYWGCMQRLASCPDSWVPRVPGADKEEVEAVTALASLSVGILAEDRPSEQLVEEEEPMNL
Experimental: as §1, §2

[6] = target: T3, recombinant human HDAC8 (Homo sapiens, UniProt Q9BY41); experiment: HDAC8 in-vitro enzymatic assay; assay type: biochemical
T3 construct: purchased BPS 50008
T3 sequence (Q9BY41 1-377): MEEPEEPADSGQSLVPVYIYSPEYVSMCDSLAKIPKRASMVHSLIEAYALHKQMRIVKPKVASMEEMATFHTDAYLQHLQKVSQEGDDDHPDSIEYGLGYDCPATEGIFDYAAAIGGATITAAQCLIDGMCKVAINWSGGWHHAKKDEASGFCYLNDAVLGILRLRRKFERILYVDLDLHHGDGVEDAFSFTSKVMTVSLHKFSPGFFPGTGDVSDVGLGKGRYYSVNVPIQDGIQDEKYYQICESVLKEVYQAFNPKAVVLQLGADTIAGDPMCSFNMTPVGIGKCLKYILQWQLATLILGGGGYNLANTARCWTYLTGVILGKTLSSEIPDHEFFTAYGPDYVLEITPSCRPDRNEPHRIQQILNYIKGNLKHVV
Experimental: as §1, §2

[7] = Dose escalation toxicity and MTD in mouse; conditions: in vivo

T1 sequence (O15379 whole entry): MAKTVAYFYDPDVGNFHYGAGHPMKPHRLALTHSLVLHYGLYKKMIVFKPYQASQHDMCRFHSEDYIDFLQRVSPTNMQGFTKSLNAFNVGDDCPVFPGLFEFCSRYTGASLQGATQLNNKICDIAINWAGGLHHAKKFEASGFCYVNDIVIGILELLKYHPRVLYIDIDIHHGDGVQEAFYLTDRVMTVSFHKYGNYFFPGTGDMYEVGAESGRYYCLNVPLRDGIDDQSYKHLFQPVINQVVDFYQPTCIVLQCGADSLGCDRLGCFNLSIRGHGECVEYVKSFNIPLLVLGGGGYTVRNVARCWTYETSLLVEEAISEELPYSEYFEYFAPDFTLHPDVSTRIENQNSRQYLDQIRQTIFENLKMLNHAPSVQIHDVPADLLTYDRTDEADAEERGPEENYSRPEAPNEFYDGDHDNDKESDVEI
T1 sequence (Q9Y618 395-489 partner limits assumed): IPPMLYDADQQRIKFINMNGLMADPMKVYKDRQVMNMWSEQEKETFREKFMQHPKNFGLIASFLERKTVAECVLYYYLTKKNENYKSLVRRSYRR

C#CCOCC(=O)Nc1ccc(C(=O)Nc2ccccc2N)cc1 [Compound 1, N-(2-aminophenyl)-4-{2-[(prop-2-yn-1-yl)oxy]acetamido}benzamide]
Caco-2 Permeability A-B dir. [1]: High
Caco-2 Permeability A-B dir. ([1]; listed as compound 1): high
Active efflux ([1]; Caco-2): No
Plasma stability Rat [2]: High
Stability SGD, SIF w. Enzymes [3]: High
IC50 [4]: ≤ 1 µM
inhibition at 1 µM ([4]; @ 1 μM, read-out: Inhib. HDAC3): 61%
IC50 [5]: > 200 µM
Inhib. HDAC7 ([5]; @ 200 μM): No Inhib. @ 200 μM
IC50 [6]: > 200 µM
inhibition at 200 µM ([6]; @ 200 μM, read-out: Inhib. HDAC8): 42%
Dose Esc. Tox mouse iv ([7]; iv): 100 mg/kg
Dose Esc. Tox mouse PO ([7]; po): 50 mg/kg
